# Measured values from patent publication US20220340597A1, “HEXAHYDRO-1H-PYRAZINO[1,2-A]PYRAZINE COMPOUNDS FOR THE TREATMENT OF AUTOIMMUNE DISEASE” (Hoffmann-La Roche Inc., priority 2019, published 2022).
# Target: T1, human TLR9 (Homo sapiens, UniProt Q9NR96)
# T1 construct: host or cells: HEK293 (HEK-Blue hTLR9)
# T1 sequence (Q9NR96 26-1032): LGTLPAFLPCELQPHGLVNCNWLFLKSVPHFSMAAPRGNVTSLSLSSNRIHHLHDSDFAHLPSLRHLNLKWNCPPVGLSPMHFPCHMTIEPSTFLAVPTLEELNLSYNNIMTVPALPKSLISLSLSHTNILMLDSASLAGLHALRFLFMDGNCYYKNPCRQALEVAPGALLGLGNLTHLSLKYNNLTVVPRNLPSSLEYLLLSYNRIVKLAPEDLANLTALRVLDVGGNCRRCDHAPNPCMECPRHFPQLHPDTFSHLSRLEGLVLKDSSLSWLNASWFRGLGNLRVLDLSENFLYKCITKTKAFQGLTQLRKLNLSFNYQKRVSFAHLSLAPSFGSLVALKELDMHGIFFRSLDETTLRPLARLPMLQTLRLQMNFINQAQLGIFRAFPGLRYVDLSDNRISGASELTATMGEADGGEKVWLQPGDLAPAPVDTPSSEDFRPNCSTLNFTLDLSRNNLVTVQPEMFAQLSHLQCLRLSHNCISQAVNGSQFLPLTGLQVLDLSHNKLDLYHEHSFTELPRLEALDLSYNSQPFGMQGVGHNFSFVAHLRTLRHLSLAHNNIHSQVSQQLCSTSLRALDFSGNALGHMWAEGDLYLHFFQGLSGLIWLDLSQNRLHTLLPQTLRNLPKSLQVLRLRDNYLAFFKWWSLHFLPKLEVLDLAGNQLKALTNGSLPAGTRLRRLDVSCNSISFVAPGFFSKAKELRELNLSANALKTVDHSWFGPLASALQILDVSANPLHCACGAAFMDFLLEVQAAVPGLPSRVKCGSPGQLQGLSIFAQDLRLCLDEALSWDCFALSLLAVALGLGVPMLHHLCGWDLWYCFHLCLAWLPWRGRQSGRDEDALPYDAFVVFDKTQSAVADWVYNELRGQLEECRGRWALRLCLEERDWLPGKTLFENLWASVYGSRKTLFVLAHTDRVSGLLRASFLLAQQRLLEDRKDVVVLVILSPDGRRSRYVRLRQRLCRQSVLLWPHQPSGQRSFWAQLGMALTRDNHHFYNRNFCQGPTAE
# Experiment: HEK293-Blue-hTLR-9 cells assay
# Type: cell-based
# Conditions: HEK293-Blue-hTLR9 cells, ODN2006 stimulation, 20 hrs, SEAP reporter; read-out: HEK/hTLR9 IC50
# Experimental: The following tests were carried out in order to determine the activity of the compounds of formula (I) and (Ia) in HEK293-Blue-hTLR-7/8/9 cells assay.
# HEK293-Blue-hTLR-9 Cells Assay:
# A stable HEK293-Blue-hTLR-9 cell line was purchased from InvivoGen (Cat. #: hkb-htlr9, San Diego, Calif., USA). These cells were originally designed for studying the stimulation of human TLR9 by monitoring the activation of NF-κB. A SEAP (secreted embryonic alkaline phosphatase) reporter gene was placed under the control of the […] minimal promoter fused to five NF-κB and AP-1-binding sites. The SEAP was induced by activating NF-κB and AP-1 via stimulating HEK-Blue hTLR9 cells with TLR9 ligands. Therefore, the reporter expression was declined by TLR9 antagonist under the stimulation of a ligand, such as ODN2006 (Cat. #: tlr1-2006-1, Invivogen, San Diego, Calif., USA), for incubation of 20 hrs. The cell culture supernatant SEAP reporter activity was determined using QUANTI-Blue™ kit (Cat. #: rep-qb1, Invivogen, San Diego, Calif., USA) at a wavelength of 640 nm, a detection medium that turns purple or blue in the presence of alkaline phosphatase.
# Then 20 μL of the supernatant from each well was incubated with 180 μL Quanti-blue substrate solution at 37° C. for 2 h and the absorbance was read at 620-655 nm using a spectrophotometer. The signaling pathway that TLR9 activation leads to downstream NF-κB activation has been widely accepted, and therefore similar reporter assay was modified for evaluating TLR9 antagonist.
row,SMILES,IC50
1,"[2H]c1ccc2c(N3C[C@@H]4CN(c5ccc([C@H]6CNCCO6)cc5)CCN4[C@@H](C)C3)ccc(C#N)c2n1 [Example 107, 5-[(4S,9aS)-4-methyl-8-[4-[(2S)-morpholin-2-yl]phenyl]-3,4,6,7,9,9a-hexahydro-1H-pyrazino[1,2-a]pyrazin-2-yl]-2-deuterio-quinoline-8-carbonitrile]",146 nM
2,"C[C@H]1CN(c2ccc(C#N)c3ncccc23)C[C@@H]2CN(c3ccc([C@@H]4CNCCO4)cc3)CCN21 [Example 125, 5-[(4S,9aS)-4-methyl-8-[4-[(2R)-morpholin-2-yl]phenyl]-3,4,6,7,9,9a-hexahydro-1H-pyrazino[1,2-a]pyrazin-2-yl]quinoline-8-carbonitrile]",120 nM
3,"C[C@@H]1CN(c2ccc(C#N)c3ncccc23)C[C@@H]2CN(CCc3ccc(N4C[C@H]5NCCO[C@@H]5C4)nc3)CCN21 [Example 124, 5-[(4R,9aS)-8-[2-[6-[(4aR,7aR)-3,4,4a,5,7,7a-hexahydro-2H-pyrrolo[3,4-b][1,4]oxazin-6-yl]-3-pyridyl]ethyl]-4-methyl-3,4,6,7,9,9a-hexahydro-1H-pyrazino[1,2-a]pyrazin-2-yl]quinoline-8-carbonitrile]",55 nM
4,"[2H]c1ccc2c(N3C[C@@H]4CN(CCc5ccc(N6C[C@@H](N)[C@H](OC)C6)nc5)CCN4[C@H](C)C3)ccc(C#N)c2n1 [Example 62, 5-[(4R,9aS)-8-[2-[6-[(3R,4R)-3-amino-4-methoxy-pyrrolidin-1-yl]-3-pyridyl]ethyl]-4-methyl-3,4,6,7,9,9a-hexahydro-1H-pyrazino[1,2-a]pyrazin-2-yl]-2-deuterio-quinoline-8-carbonitrile]",43 nM
5,"CO[C@@H]1CN(c2ccc(CCN3CCN4[C@@H](C3)CN(c3ccc(C#N)c5ncccc35)C[C@H]4C)cc2)C[C@H]1N [Example 26, 5-[(4R,9aS)-8-[2-[4-[(3R,4R)-3-amino-4-methoxy-pyrrolidin-1-yl]phenyl]ethyl]-4-methyl-3,4,6,7,9,9a-hexahydro-1H-pyrazino[1,2-a]pyrazin-2-yl]quinoline-8-carbonitrile]",87 nM
6,"C[C@@H]1CN(c2ccc(C#N)c3ncccc23)C[C@@H]2CN(CCc3ccc(N4CCN[C@@H](C)C4)cn3)CCN21 [Example 20, 5-[(4R,9aS)-4-methyl-8-[2-[5-[(3S)-3-methylpiperazin-1-yl]-2-pyridyl]ethyl]-3,4,6,7,9,9a-hexahydro-1H-pyrazino[1,2-a]pyrazin-2-yl]quinoline-8-carbonitrile]",56 nM
7,"C[C@@H]1CN(c2ccc(C#N)n3ncc(F)c23)C[C@@H]2CN(CCc3ccc(N4CC(C)(N)C4)nc3)CCN21 [Example 74, 4-[(4R,9aS)-8-[2-[6-(3-amino-3-methyl-azetidin-1-yl)-3-pyridyl]ethyl]-4-methyl-3,4,6,7,9,9a-hexahydro-1H-pyrazino[1,2-a]pyrazin-2-yl]-3-fluoro-pyrazolo[1,5-a]pyridine-7-carbonitrile]",48 nM
8,"Cc1cc(N2CCOC[C@H](N)C2)ncc1N1CCN2CCN(c3ccc(C#N)c4ncccc34)CC2C1 (stereo partly drawn) [Example 46, 5-[2-[6-[(6R)-6-amino-1,4-oxazepan-4-yl]-4-methyl-3-pyridyl]-3,4,6,7,9,9a-hexahydro-1H-pyrazino[1,2-a]pyrazin-8-yl]quinoline-8-carbonitrile]",78 nM
9,"C[C@@H]1CN(c2ccc(C#N)c3ncccc23)C[C@@H]2CN(CCc3ccc(N4CC5(CNCCO5)C4)nc3)CCN21 [Example 59, 5-[(4R,9aS)-4-methyl-8-[2-[6-(5-oxa-2,8-diazaspiro[3.5]nonan-2-yl)-3-pyridyl]ethyl]-3,4,6,7,9,9a-hexahydro-1H-pyrazino[1,2-a]pyrazin-2-yl]quinoline-8-carbonitrile]",48 nM
10,"C[C@@H]1CN(c2ccc(C#N)c3ncccc23)C[C@@H]2CN(Cc3cccc4c3CCNC4)CCN21 [Example 70, 5-[(4R,9aS)-4-methyl-8-(1,2,3,4-tetrahydroisoquinolin-5-ylmethyl)-3,4,6,7,9,9a-hexahydro-1H-pyrazino[1,2-a]pyrazin-2-yl]quinoline-8-carbonitrile]",97 nM

# Second part, the compound after the results:
row,IC50,SMILES
1,< 32 nM,"C[C@@H]1CN(c2ccc(C#N)c3ncccc23)C[C@@H]2CN(c3ccnc(N4C[C@@H](F)[C@@H](N)C4)c3)CCN21 [Example 40, 5-[(4R,9aS)-8-[2-[(3S,4R)-3-amino-4-fluoro-pyrrolidin-1-yl]-4-pyridyl]-4-methyl-3,4,6,7,9,9a-hexahydro-1H-pyrazino[1,2-a]pyrazin-2-yl]quinoline-8-carbonitrile]"
2,< 32 nM,"C[C@@H]1CN(c2ccc(C#N)c3ncccc23)C[C@@H]2CN(c3ccnc(N4CCOC[C@@H](N)C4)c3)CCN21 [Example 53, 5-[(4R,9aS)-8-[2-[(6S)-6-amino-1,4-oxazepan-4-yl]-4-pyridyl]-4-methyl-3,4,6,7,9,9a-hexahydro-1H-pyrazino[1,2-a]pyrazin-2-yl]quinoline-8-carbonitrile]"
3,< 32 nM,"C[C@@H]1CN(c2ccc(C#N)c3ncccc23)C[C@@H]2CN(c3ccnc(N4CC[C@@](C)(N)C4)c3)CCN21 [Example 105, 5-[(4R,9aS)-8-[2-[(3R)-3-amino-3-methyl-pyrrolidin-1-yl]-4-pyridyl]-4-methyl-3,4,6,7,9,9a-hexahydro-1H-pyrazino[1,2-a]pyrazin-2-yl]quinoline-8-carbonitrile]"
4,85 nM,"Cc1cc(N2CCN3[C@@H](C2)CN(c2ccc(C#N)c4ncccc24)C[C@H]3C)nc(N2CCNCC2)n1 [Example 31, 5-[(4R,9aR)-4-methyl-8-(6-methyl-2-piperazin-1-yl-pyrimidin-4-yl)-3,4,6,7,9,9a-hexahydro-1H-pyrazino[1,2-a]pyrazin-2-yl]quinoline-8-carbonitrile]"
5,94 nM,"C[C@@H]1CN(c2ccc(C#N)c3ncccc23)C[C@@H]2CN(Cc3cncc(N4CCNCC4)c3)CCN21 [Example 57, 5-[(4R,9aS)-4-methyl-8-[(5-piperazin-1-yl-3-pyridyl)methyl]-3,4,6,7,9,9a-hexahydro-1H-pyrazino[1,2-a]pyrazin-2-yl]quinoline-8-carbonitrile]"
6,78 nM,"Cc1cnc(N2CCN3[C@@H](C2)CN(c2ccc(C#N)c4ncccc24)C[C@H]3C)nc1N1CCNCC1 [Example 43, 5-[(4R,9aR)-4-methyl-8-(5-methyl-4-piperazin-1-yl-pyrimidin-2-yl)-3,4,6,7,9,9a-hexahydro-1H-pyrazino[1,2-a]pyrazin-2-yl]quinoline-8-carbonitrile]"
7,< 32 nM,"[2H]c1ccc2c(N3C[C@@H]4CN(Cc5ccc(N6CCNCC6)nc5)CCN4[C@H](C)C3)ccc(C#N)c2n1 [Example 78, 5-[(4R,9aS)-4-methyl-8-[(6-piperazin-1-yl-3-pyridyl)methyl]-3,4,6,7,9,9a-hexahydro-1H-pyrazino[1,2-a]pyrazin-2-yl]-2-deuterio-quinoline-8-carbonitrile]"
8,120 nM,"C[C@@H]1CN(c2ccc(C#N)c3ncccc23)C[C@@H]2CN(c3nccc4c3CCNC4)CCN21 [Example 16, 5-[(4R,9aR)-4-methyl-8-(5,6,7,8-tetrahydro-2,6-naphthyridin-1-yl)-3,4,6,7,9,9a-hexahydro-1H-pyrazino[1,2-a]pyrazin-2-yl]quinoline-8-carbonitrile]"
9,56 nM,"C[C@@H]1CN(c2ccc(C#N)c3ncccc23)C[C@@H]2CN(CCc3cccc(N4CCN[C@@H](C)C4)n3)CCN21 [Example 21, 5-[(4R,9aS)-4-methyl-8-[2-[6-[(3S)-3-methylpiperazin-1-yl]-2-pyridyl]ethyl]-3,4,6,7,9,9a-hexahydro-1H-pyrazino[1,2-a]pyrazin-2-yl]quinoline-8-carbonitrile]"
